Test results taken from PubChem BioAssay (NCI).
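A five-concentration, 48-hour dose response in 96-well plates underlies each endpoint, interpolated linearly between surrounding concentrations. GI50 is the concentration that inhibits growth by half. TGI is the concentration that stops growth completely.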

What was measured:
Assay in all cases: growth of human tumour cells (NCI), 48 h
786-0 renal = test system: 786-0 renal
HL-60(TB) leukemia = test system: HL-60(TB) leukemia
HT29 colon = test system: HT29 colon
LOX IMVI melanoma = test system: LOX IMVI melanoma
MALME-3M melanoma = test system: MALME-3M melanoma
SK-OV-3 ovarian = test system: SK-OV-3 ovarian
SNB-75 CNS = test system: SNB-75 CNS
TK-10 renal = test system: TK-10 renal
SR leukemia = test system: SR leukemia
NCI/ADR-RES ovarian = test system: NCI/ADR-RES ovarian

## N#Cc1c(-c2ccc(Cl)c(Cl)c2)c(-c2ccc(Cl)c(Cl)c2)nn(CC(=O)O)c1=O
786-0 renal
  TGI: > 100 µM
HL-60(TB) leukemia
  TGI: > 100 µM
HT29 colon
  TGI: > 100 µM
LOX IMVI melanoma
  TGI: > 100 µM
MALME-3M melanoma
  TGI: > 100 µM
SK-OV-3 ovarian
  TGI: > 100 µM
SNB-75 CNS
  TGI: > 100 µM
TK-10 renal
  TGI: > 100 µM

## O=C1NC(Cc2ccc(O)cc2)C(=O)N2CCCC12 (stereo not given)
786-0 renal
  TGI: > 100 µM
HL-60(TB) leukemia
  TGI: > 100 µM
HT29 colon
  TGI: > 100 µM
LOX IMVI melanoma
  TGI: > 100 µM
MALME-3M melanoma
  TGI: > 100 µM
SK-OV-3 ovarian
  TGI: > 100 µM
SNB-75 CNS
  TGI: > 100 µM
SR leukemia
  TGI: > 100 µM
TK-10 renal
  TGI: > 100 µM

## CC1=Nc2ccccc2S/C1=C(/C)NNS(=O)(=O)c1ccc(C)cc1
786-0 renal
  TGI: > 100 µM
HL-60(TB) leukemia
  TGI: > 100 µM
HT29 colon
  TGI: > 100 µM
LOX IMVI melanoma
  TGI: > 100 µM
MALME-3M melanoma
  TGI: > 100 µM
SK-OV-3 ovarian
  TGI: > 100 µM
SNB-75 CNS
  TGI: > 100 µM
SR leukemia
  TGI: > 100 µM
TK-10 renal
  TGI: > 100 µM

## Cc1ccc(S(=O)(=O)OCCn2cnc3nc(NC(=O)c4ccccc4)[nH]c(=O)c32)cc1
786-0 renal
  TGI: > 100 µM
HL-60(TB) leukemia
  TGI: > 100 µM
HT29 colon
  TGI: > 100 µM
LOX IMVI melanoma
  TGI: > 100 µM
MALME-3M melanoma
  TGI: > 100 µM
SK-OV-3 ovarian
  TGI: > 100 µM
SNB-75 CNS
  TGI: > 100 µM
SR leukemia
  TGI: > 100 µM
TK-10 renal
  TGI: > 100 µM

## CN(C)C=Nc1ccn(CCO)c(=O)n1
786-0 renal
  TGI: > 100 µM
HL-60(TB) leukemia
  TGI: > 100 µM
HT29 colon
  TGI: > 100 µM
LOX IMVI melanoma
  TGI: > 100 µM
MALME-3M melanoma
  TGI: > 100 µM
SK-OV-3 ovarian
  TGI: > 100 µM
SNB-75 CNS
  TGI: > 100 µM
SR leukemia
  TGI: > 100 µM
TK-10 renal
  TGI: > 100 µM

## N#Cc1cccc2c1Nc1ccccc1S2
786-0 renal
  TGI: > 100 µM
HL-60(TB) leukemia
  TGI: > 100 µM
HT29 colon
  TGI: > 100 µM
LOX IMVI melanoma
  TGI: > 100 µM
MALME-3M melanoma
  TGI: > 100 µM
SK-OV-3 ovarian
  TGI: > 100 µM
SNB-75 CNS
  TGI: > 100 µM
SR leukemia
  TGI: > 100 µM
TK-10 renal
  TGI: > 100 µM

## C[C@@H](NC1CCCC[C@H]1O)c1ccccc1 (stereo not given in full)
786-0 renal
  TGI: > 100 µM
HL-60(TB) leukemia
  TGI: > 100 µM
HT29 colon
  TGI: > 100 µM
LOX IMVI melanoma
  TGI: > 100 µM
MALME-3M melanoma
  TGI: > 100 µM
SK-OV-3 ovarian
  TGI: > 100 µM
SNB-75 CNS
  TGI: > 100 µM
TK-10 renal
  TGI: > 100 µM

## COc1ccc(C/C(=N/O)C(=O)NCCc2cc(Br)c(OCCCN(C)C)c(Br)c2)cc1Br
786-0 renal
  TGI: 48.1 µM
HL-60(TB) leukemia
  TGI: 28.1 µM
HT29 colon
  TGI: 19.1 µM
LOX IMVI melanoma
  TGI: 30.1 µM
MALME-3M melanoma
  TGI: 44.6 µM
SNB-75 CNS
  TGI: 55 µM
TK-10 renal
  TGI: 59.8 µM

## COP(=O)(OC)C(=O)N1N(c2ccc([N+](=O)[O-])cc2)C(=O)C(C)NC1(NNc1ccc([N+](=O)[O-])cc1)P(=O)(OC)OC (stereo not given)
786-0 renal
  TGI: > 100 µM
HL-60(TB) leukemia
  TGI: > 100 µM
LOX IMVI melanoma
  TGI: > 100 µM
MALME-3M melanoma
  TGI: > 100 µM
SNB-75 CNS
  TGI: > 100 µM
SR leukemia
  TGI: > 100 µM
TK-10 renal
  TGI: > 100 µM

## N.N.N.N.N.[Co+3].[I-].[N-]=[N+]=[N-]
786-0 renal
  GI50: > 100 µM
  TGI: > 100 µM
HT29 colon
  GI50: > 100 µM
  TGI: > 100 µM
LOX IMVI melanoma
  GI50: > 100 µM
  TGI: > 100 µM
MALME-3M melanoma
  GI50: > 100 µM
  TGI: > 100 µM
SK-OV-3 ovarian
  GI50: > 100 µM
  TGI: > 100 µM
SNB-75 CNS
  GI50: 76.9 µM
  TGI: > 100 µM
TK-10 renal
  GI50: > 100 µM
  TGI: > 100 µM

## O=C1C2Nc3ccccc3SC2C(=O)N1c1ccc(Br)cc1 (stereo not given)
786-0 renal
  TGI: 46.6 µM
HT29 colon
  TGI: > 100 µM
LOX IMVI melanoma
  TGI: > 100 µM
MALME-3M melanoma
  TGI: > 100 µM
SK-OV-3 ovarian
  TGI: 61.1 µM
SNB-75 CNS
  TGI: 60.7 µM
TK-10 renal
  TGI: > 100 µM

## c1cc(NNc2cccc(-c3nn[nH]n3)c2)cc(-c2nn[nH]n2)c1
786-0 renal
  TGI: > 100 µM
HT29 colon
  TGI: > 100 µM
LOX IMVI melanoma
  TGI: > 100 µM
MALME-3M melanoma
  TGI: > 100 µM
NCI/ADR-RES ovarian
  TGI: > 100 µM
SK-OV-3 ovarian
  TGI: > 100 µM
SNB-75 CNS
  TGI: > 100 µM
TK-10 renal
  TGI: > 100 µM

## CC(C)OP(=O)(OC(C)C)/C(Cl)=N/Nc1ccc([N+](=O)[O-])cc1
786-0 renal
  TGI: > 100 µM
HL-60(TB) leukemia
  TGI: > 100 µM
LOX IMVI melanoma
  TGI: > 100 µM
MALME-3M melanoma
  TGI: > 100 µM
SNB-75 CNS
  TGI: > 100 µM
SR leukemia
  TGI: > 100 µM
TK-10 renal
  TGI: > 100 µM

## O=C(NCCCCCCCCCCCCNC(=O)c1cccc2ccccc12)c1cccc2ccccc12
786-0 renal
  TGI: > 71.7 µM
HL-60(TB) leukemia
  TGI: > 80.1 µM
HT29 colon
  TGI: > 100 µM
LOX IMVI melanoma
  TGI: > 100 µM
MALME-3M melanoma
  TGI: > 100 µM
SK-OV-3 ovarian
  TGI: > 66.8 µM
SNB-75 CNS
  TGI: > 54.6 µM
SR leukemia
  TGI: > 100 µM
TK-10 renal
  TGI: > 87.1 µM

## C/C(=C1/N=C(c2cc([N+](=O)[O-])ccc2Cl)N(c2cccc(C)c2)C1=O)c1cc2ccccc2oc1=O
786-0 renal
  TGI: > 100 µM
HL-60(TB) leukemia
  TGI: > 100 µM
HT29 colon
  TGI: > 100 µM
LOX IMVI melanoma
  TGI: 37.1 µM
MALME-3M melanoma
  TGI: > 100 µM
SK-OV-3 ovarian
  TGI: > 100 µM
SNB-75 CNS
  TGI: > 100 µM
SR leukemia
  TGI: > 100 µM
TK-10 renal
  TGI: > 100 µM

## COc1ccc2c(c1OC)C[C@@H]1c3c(cc4c(c3-2)OCO4)CCN1C
786-0 renal
  TGI: 63.9 µM
HL-60(TB) leukemia
  TGI: 27.2 µM
HT29 colon
  TGI: 41.3 µM
LOX IMVI melanoma
  TGI: 29.1 µM
MALME-3M melanoma
  TGI: > 100 µM
SK-OV-3 ovarian
  TGI: 58.4 µM
SNB-75 CNS
  TGI: 52.5 µM
SR leukemia
  TGI: 54.3 µM
TK-10 renal
  TGI: 74.6 µM

## COC(=O)CC(NC(=O)OCc1ccccc1)C(C(C)=O)C(=O)OCc1ccccc1 (stereo not given)
786-0 renal
  TGI: > 31.6 µM
HL-60(TB) leukemia
  TGI: > 31.6 µM
LOX IMVI melanoma
  TGI: > 100 µM
SK-OV-3 ovarian
  TGI: > 31.6 µM
SNB-75 CNS
  TGI: 30.8 µM
SR leukemia
  TGI: > 100 µM
TK-10 renal
  TGI: > 31.6 µM
